Assay results from US8030336B2, “Nicotinamide-based kinase inhibitors” (YM Biosciences Australia Pty Ltd, priority 2002, dated 2011).

How the values were obtained:
Format in all cases: biochemical
[1] = molecular target: T1, human JAK2 (Homo sapiens, UniProt O60674); assay: JAK2 kinase assay (ELISA or Alphascreen); conditions: read-out: Jak2 inhibition of enzyme activity
T1 construct: The kinase domain of human JAK2 was amplified from U937mRNA; His tag (from the pFastBac HTc vector) (N); made in house; host or cells: baculovirus; Sf9 for virus, High Five insect cells for production
T1 sequence (O60674 849-1124 limits assumed): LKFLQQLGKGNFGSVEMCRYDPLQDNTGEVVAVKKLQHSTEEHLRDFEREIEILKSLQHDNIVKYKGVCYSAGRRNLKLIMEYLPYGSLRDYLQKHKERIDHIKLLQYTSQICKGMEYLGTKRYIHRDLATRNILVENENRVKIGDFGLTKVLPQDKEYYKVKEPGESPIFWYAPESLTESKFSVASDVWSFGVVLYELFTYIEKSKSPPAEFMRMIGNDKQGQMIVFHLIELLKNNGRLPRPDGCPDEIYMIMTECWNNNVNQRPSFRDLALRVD
From the text: The kinase domain of human JAK2 was amplified from U937mRNA using the polymerase chain reaction with the following primers: […]
JAK2 PCR products were doped into the pFastBac HTc expression vector (Gibco) via the Sal I and Not I sites. The JAK2 plasmid was than transformed into competent DH10Bac cells (Gibco), and the recombinant baculovirus produced prepared for transfection into Sf9 insect cells.
(§1) Baculovirus preparations from each of the JAK family members were infected into five liters of High Five cells (Invitrogen) grown in High Five serum free medium (Invitrogen) to a cell density of approximately 1-2×10^6 cells/ml. Cells are infected with virus at a MOI of 0.8-3.0. Cells were harvested and lysed. JAK kinase domains were purified by affinity chromatography on a Probond (Invitrogen) nickel chelate affinity column.
(§2) Kinase assays were performed in a 96 well capture-based ELISA assay or in 384 well Optiplates (Packard) using an Alphascreen Protein Tyrosine Kinase kit. In either case using approximately 1.5 μg of affinity purified PTK domain in the presence of 50 mM HEPES, pH 7.5, 10 mM MgCl2, 150 mM NaCl and 10 μM-1 mM ATP. The biotinylated substrate biotin-EGPWLEEEEEAYGWMDF-NH2 (SEQ ID NO:9) (final concentration 5 μM) was used as substrate. In the ELISA assay tyrosine phosphorylation was quantitated following transfer to an avidin coated ELISA plate using peroxidase-linked anti-phosphotyrosine antibody PY20. In the Alphascreen assay, Alphascreen phosphotyrosine acceptor beads followed by streptavidin donor beads were added under subdued light. The ELISA plates were read on a BMG Fluorostar, the Alphascreen plates were read on a Packard Fusion Alpha. Inhibitors were added to the assays fifteen minutes prior to the addition of ATP. Inhibitors were added in aqueous […] concentrations never exceeding 1%.

[2] = molecular target: T2, Zap70 (Homo sapiens, UniProt P43403); assay: Zap70 kinase assay (ELISA or Alphascreen); conditions: read-out: Zap70 inhibition of enzyme activity
T2 sequence (P43403 338-600 limits assumed): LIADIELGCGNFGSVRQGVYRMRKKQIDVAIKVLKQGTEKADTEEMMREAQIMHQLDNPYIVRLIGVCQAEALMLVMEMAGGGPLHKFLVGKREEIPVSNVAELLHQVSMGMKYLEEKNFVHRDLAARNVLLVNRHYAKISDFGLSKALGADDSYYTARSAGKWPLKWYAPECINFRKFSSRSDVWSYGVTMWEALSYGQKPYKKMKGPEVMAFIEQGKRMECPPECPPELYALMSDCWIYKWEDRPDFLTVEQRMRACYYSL
Experimental: as §2

[3] = molecular target: fes (Homo sapiens, UniProt P07332); assay: fes kinase assay (ELISA or Alphascreen); conditions: read-out: fes inhibition of enzyme activity
Sequence of fes (P07332 561-822 limits assumed, species assumed): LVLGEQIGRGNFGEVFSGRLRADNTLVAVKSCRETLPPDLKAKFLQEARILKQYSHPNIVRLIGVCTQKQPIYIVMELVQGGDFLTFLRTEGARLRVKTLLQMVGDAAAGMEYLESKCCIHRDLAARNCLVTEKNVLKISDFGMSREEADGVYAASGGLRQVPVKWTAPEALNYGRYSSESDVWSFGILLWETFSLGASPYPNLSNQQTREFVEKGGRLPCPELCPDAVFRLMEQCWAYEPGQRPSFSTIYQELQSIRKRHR
Experimental: as §2

[4] = molecular target: hck (Homo sapiens, UniProt P08631); assay: hck kinase assay (ELISA or Alphascreen); conditions: read-out: hck inhibition of enzyme activity
Sequence of hck (P08631 262-515 limits assumed, species assumed): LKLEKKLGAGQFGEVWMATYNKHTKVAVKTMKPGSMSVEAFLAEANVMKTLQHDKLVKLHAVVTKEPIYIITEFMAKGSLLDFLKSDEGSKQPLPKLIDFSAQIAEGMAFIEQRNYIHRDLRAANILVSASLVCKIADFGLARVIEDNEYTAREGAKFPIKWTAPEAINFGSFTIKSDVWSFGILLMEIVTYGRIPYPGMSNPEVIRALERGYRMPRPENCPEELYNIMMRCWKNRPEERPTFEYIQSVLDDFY
Experimental: as §2

[5] = molecular target: T3, abl (Homo sapiens, UniProt P00519); assay: abl kinase assay (ELISA or Alphascreen); conditions: read-out: abl inhibition of enzyme activity
T3 sequence (P00519 242-493 limits assumed): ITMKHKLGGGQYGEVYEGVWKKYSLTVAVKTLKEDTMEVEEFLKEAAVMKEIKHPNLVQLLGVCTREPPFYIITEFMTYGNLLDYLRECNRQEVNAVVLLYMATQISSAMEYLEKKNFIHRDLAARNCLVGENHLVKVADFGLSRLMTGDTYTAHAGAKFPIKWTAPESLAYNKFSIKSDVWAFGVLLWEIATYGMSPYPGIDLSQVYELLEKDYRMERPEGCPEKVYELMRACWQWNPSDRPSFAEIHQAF
Experimental: as §2

[6] = molecular target: T4, human JAK3 (Homo sapiens, UniProt P52333); assay: JAK3 kinase assay (ELISA or Alphascreen); conditions: read-out: Jak3 inhibition of enzyme activity
T4 construct: The kinase domain of human JAK3 was amplified from U937mRNA; His tag (from the pFastBac HTb vector) (N); made in house; host or cells: baculovirus; Sf9 for virus, High Five insect cells for production
T4 sequence (P52333 822-1111 limits assumed): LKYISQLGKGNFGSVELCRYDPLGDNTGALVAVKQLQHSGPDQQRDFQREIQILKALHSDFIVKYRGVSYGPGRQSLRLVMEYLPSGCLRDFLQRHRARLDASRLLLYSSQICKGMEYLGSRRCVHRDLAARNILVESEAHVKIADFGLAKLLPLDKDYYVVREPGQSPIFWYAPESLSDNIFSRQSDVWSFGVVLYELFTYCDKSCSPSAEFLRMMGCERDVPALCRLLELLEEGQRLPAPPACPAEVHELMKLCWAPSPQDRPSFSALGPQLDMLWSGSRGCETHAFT
From the text: The kinase domain of human JAK3 was amplified from U937mRNA using the polymerase chain reaction with the following primers: […]
JAK3 PCR products were cloned into the pFastBac HTb expression vector (Gibco) via the Xho I and Kpn I sites. The JAK3 plasmid was then transformed into competent DH10Bac cells (Gibco), and the recombinant baculovirus produced prepared for transfection into Sf9 insect cells.
as §1, §2

[7] = molecular target: T5, fms (Homo sapiens, UniProt P07333); assay: fms kinase assay (ELISA or Alphascreen); conditions: read-out: fms inhibition of enzyme activity
T5 sequence (P07333 582-910 limits assumed): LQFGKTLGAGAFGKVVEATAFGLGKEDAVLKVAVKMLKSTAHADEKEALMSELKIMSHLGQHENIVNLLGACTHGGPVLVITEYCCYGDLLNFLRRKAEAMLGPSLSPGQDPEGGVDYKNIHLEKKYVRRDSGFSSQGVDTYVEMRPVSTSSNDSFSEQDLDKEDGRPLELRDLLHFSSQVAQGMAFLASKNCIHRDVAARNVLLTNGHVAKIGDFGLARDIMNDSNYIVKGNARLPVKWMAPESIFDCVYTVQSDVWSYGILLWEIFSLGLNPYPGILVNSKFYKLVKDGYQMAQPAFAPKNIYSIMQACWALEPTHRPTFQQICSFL
Experimental: as §2

Row | Compound | inhibition at 10 µM [1] | inhibition at 10 µM [2] | inhibition at 10 µM [3] | inhibition at 10 µM [4] | inhibition at 10 µM [5] | inhibition at 10 µM [6] | inhibition at 10 µM [7]
1 | Cc1cc(-c2cncc(C(=O)N[C@H](C)c3ccccc3)c2)cc(C)c1O | < 50% | < 50% | < 50% | < 50% | < 50% |  | 
2 | COc1cc(CNC(=O)c2cncc(-c3cc(C)c(O)c(C)c3)c2)cc(OC)c1 | < 50% | < 50% | < 50% | < 50% |  | < 50% | ≥ 50%
3 | Cc1cc(-c2cncc(C(=O)NC(C)CCc3ccccc3)c2)cc(C)c1O (centres unmarked) | < 50% | < 50% | < 50% | < 50% |  | < 50% | < 50%
4 | COc1cc(-c2cncc(C(=O)NC(C)C)c2)c(Cl)c(OC)c1OC | < 50% | < 50% | < 50% | < 50% |  | < 50% | < 50%
5 | COc1cc(-c2cncc(C(=O)NCCc3ccccc3)c2)c(Cl)c(OC)c1OC | < 50% | < 50% | < 50% | < 50% |  | < 50% | < 50%
6 | COc1cc(-c2cncc(C(=O)Nc3ccc(F)cc3C)c2)c(Cl)c(OC)c1OC | < 50% | < 50% | < 50% | ≥ 50% |  | < 50% | ≥ 50%
7 | O=C(NCCO)c1cncc(-c2ccc3c(c2)OCO3)c1 | < 50% | < 50% |  | < 50% | < 50% | < 50% | 
8 | COc1cc(CNC(=O)c2cncc(-c3ccc4c(c3)OCO4)c2)cc(OC)c1 | < 50% | < 50% | < 50% | < 50% | < 50% |  | 
9 | O=C(NCc1cccc(F)c1)c1cncc(-c2ccc3c(c2)OCO3)c1 | < 50% | < 50% | < 50% | < 50% | < 50% | < 50% | 
10 | O=C(NCCc1ccccc1)c1cncc(-c2ccc3c(c2)OCO3)c1 | < 50% | < 50% | < 50% | < 50% | < 50% | < 50% | 
11 | Cc1ccccc1NC(=O)c1cncc(-c2ccc3c(c2)OCO3)c1 | < 50% | < 50% | < 50% | ≥ 50% | < 50% | < 50% | 
12 | O=C(NCc1ccc(N2CCOCC2)cc1)c1cncc(-c2cccs2)c1 | < 50% | < 50% | < 50% | < 50% | < 50% |  | 
13 | C[C@@H](NC(=O)c1cncc(-c2cccs2)c1)c1ccccc1 | < 50% | < 50% | < 50% | < 50% | < 50% | < 50% | 
14 | O=C(NCCc1ccccc1)c1cncc(-c2cccs2)c1 | < 50% | < 50% | < 50% | < 50% | < 50% | < 50% | 
15 | Cc1ccccc1NC(=O)c1cncc(-c2cccs2)c1 | < 50% | < 50% | < 50% | ≥ 50% | < 50% | < 50% | 
16 | COc1cccc(-c2cncc(C(=O)N[C@H](C)c3ccccc3)c2)c1 | < 50% | < 50% | < 50% | < 50% | < 50% | < 50% | 
17 | COc1cccc(-c2cncc(C(=O)N[C@@H](C)c3ccccc3)c2)c1 | < 50% | < 50% | < 50% | < 50% | < 50% | < 50% | 

Now from value to compound:

Row | inhibition at 10 µM [1] | inhibition at 10 µM [2] | inhibition at 10 µM [3] | inhibition at 10 µM [4] | inhibition at 10 µM [5] | inhibition at 10 µM [6] | inhibition at 10 µM [7] | Compound
18 | < 50% | < 50% | < 50% | < 50% | < 50% |  |  | C[C@@H](NC(=O)c1cncc(-c2ccc(O)cc2)c1)c1ccccc1
19 | < 50% | < 50% | < 50% | < 50% | < 50% | < 50% |  | O=C(NCc1ccc(Cl)c(Cl)c1)c1cncc(-c2ccc(O)cc2)c1
20 |  | < 50% | < 50% | < 50% | < 50% | < 50% |  | O=C(NCc1cccc(F)c1)c1cncc(-c2ccc(O)cc2)c1
21 | < 50% | < 50% | < 50% | < 50% | < 50% | < 50% |  | Cc1ccc(CNC(=O)c2cncc(-c3ccc(O)cc3)c2)cc1
22 | < 50% | < 50% | < 50% | < 50% |  | < 50% | < 50% | CN(Cc1ccccc1)C(=O)c1cncc(-c2ccc(O)cc2)c1
23 | < 50% | < 50% |  | < 50% | < 50% | < 50% |  | COc1ccc(NC(=O)c2cncc(-c3ccc(O)cc3)c2)c(OC)c1
24 | < 50% | < 50% | < 50% | ≥ 50% |  | < 50% | ≥ 50% | Cc1ccccc1NC(=O)c1cncc(-c2ccc(O)cc2)c1
25 | < 50% | < 50% | < 50% | < 50% | < 50% | < 50% |  | CC(NC(=O)c1cncc(-c2ccc(O)cc2)c1)c1ccc(F)cc1 (centres unmarked)
26 | < 50% | < 50% | < 50% | < 50% | < 50% | < 50% |  | COc1ccc(CNC(=O)c2cncc(-c3cccnc3)c2)cc1
27 | < 50% | < 50% | < 50% | < 50% | < 50% | < 50% |  | Cc1cc(F)ccc1NC(=O)c1cncc(-c2ccc(F)cc2)c1
